Reference: the NIST ThermoML archive (doi:10.1021/acs.jced.8b00844)
± gives the expanded uncertainty stated by the source.

Key:
[1] = 298.15 K; 101.33 kPa; Liquid; Vibrating tube method
[2] = refractive index (Na D-line) (dimensionless); conditions: 298.15 K; 101.33 kPa; Liquid; Standard Abbe refractometry

Compound `CC(=O)OC(C)C` [1-methylethyl ethanoate] has a mass density [1] of 867.6 ± 16 kg/m3 and a refractive index [2] of 1.3701 ± 0.012.
`CC(C)O` [propan-2-ol] showed a mass density [1] of 781.4 ± 16 kg/m3 and a refractive index [2] of 1.375 ± 0.012.
Work on `O` [water] yielded a refractive index [2] of 1.3325 ± 0.012.
